Our source for the residual activity values is ChEMBL document CHEMBL2146466, “Evaluation of dimerization-inhibitory activities of cyclic peptides containing a β-hairpin loop sequence of the EGF receptor” (2012).

Where a SMILES comes first, the peptide text is derived from it.

The residual activity is the share of the control activity or signal that is left under treatment.

Sequence of Epidermal growth factor receptor (Homo sapiens) (P00533 whole entry): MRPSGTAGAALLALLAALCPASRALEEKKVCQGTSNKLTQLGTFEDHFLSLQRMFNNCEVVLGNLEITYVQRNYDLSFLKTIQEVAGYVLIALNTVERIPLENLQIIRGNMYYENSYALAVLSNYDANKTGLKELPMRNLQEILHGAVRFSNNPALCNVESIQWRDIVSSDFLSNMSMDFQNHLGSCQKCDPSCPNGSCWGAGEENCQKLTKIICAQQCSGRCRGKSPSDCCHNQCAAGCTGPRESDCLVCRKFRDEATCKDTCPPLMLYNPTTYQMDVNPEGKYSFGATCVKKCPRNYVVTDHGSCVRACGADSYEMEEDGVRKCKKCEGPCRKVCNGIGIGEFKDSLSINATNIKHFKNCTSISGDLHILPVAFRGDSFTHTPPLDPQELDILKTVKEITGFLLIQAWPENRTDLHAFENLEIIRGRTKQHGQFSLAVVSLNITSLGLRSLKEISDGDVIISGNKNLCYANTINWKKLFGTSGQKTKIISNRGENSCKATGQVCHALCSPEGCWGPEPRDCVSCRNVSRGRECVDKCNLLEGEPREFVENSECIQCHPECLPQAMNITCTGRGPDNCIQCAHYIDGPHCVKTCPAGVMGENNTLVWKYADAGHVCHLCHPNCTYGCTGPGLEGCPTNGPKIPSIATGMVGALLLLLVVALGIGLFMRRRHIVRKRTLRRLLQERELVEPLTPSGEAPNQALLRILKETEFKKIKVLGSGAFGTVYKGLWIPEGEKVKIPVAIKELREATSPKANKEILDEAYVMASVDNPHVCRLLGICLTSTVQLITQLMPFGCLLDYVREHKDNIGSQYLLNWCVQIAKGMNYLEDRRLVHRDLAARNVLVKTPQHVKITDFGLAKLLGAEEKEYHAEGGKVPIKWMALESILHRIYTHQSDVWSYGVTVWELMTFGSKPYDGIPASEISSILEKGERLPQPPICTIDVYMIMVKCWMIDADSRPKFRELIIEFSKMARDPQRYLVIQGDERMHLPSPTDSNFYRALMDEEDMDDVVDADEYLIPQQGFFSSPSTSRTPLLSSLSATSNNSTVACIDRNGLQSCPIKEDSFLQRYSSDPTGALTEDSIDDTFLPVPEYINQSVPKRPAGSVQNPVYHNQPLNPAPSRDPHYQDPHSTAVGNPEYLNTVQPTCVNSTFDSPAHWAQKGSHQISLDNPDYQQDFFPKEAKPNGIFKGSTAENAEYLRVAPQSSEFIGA

The experiment has as its target Epidermal growth factor receptor (Homo sapiens) (UniProt P00533). The experiment in a line: Human recombinant EGF receptor dimer amount expressed in A431 cells at 10 uM after 10 mins by immunoblotting analysis relative to control. To be noted: A-431. For orientation: A western blot detects proteins with antibodies after separation by electrophoresis.
As to `CSCC[C@@H]1NC(=O)[C@H](CCC(N)=O)NC(=O)[C@H](Cc2ccc(O)cc2)NC(=O)[C@H]([C@@H](C)O)NC(=O)[C@H]([C@@H](C)O)NC(=O)[C@@H]2CCCN2C(=O)[C@H](CC(N)=O)NC(=O)[C@H](Cc2ccc(O)cc2)NC(=O)[C@H](CC(C)C)NC(=O)[C@@H](N)CSSC[C@@H](C(=O)O)NC1=O` (HELM PEPTIDE1{C.L.Y.N.P.T.T.Y.Q.M.C}$PEPTIDE1,PEPTIDE1,1:R3-11:R3$$$V2.0), the residual activity was 80%.

Turning to `CSCC[C@@H]1NC(=O)[C@H](CCC(N)=O)NC(=O)[C@H](Cc2ccc(O)cc2)NC(=O)[C@H]([C@@H](C)O)NC(=O)[C@H]([C@@H](C)O)NC(=O)[C@@H]2CCCN2C(=O)[C@H](CC(N)=O)NC(=O)[C@H](Cc2ccc(O)cc2)NC(=O)[C@H](CC(C)C)NC(=O)[C@@H](N)CSSC[C@@H](C(=O)O)NC(=O)[C@H](CC(=O)O)NC1=O` (HELM PEPTIDE1{C.L.Y.N.P.T.T.Y.Q.M.D.C}$PEPTIDE1,PEPTIDE1,1:R3-12:R3$$$V2.0), the residual activity was 80%.

Take `C[C@@H]1NC(=O)[C@H](CCC(N)=O)NC(=O)[C@H](Cc2ccc(O)cc2)NC(=O)[C@H]([C@@H](C)O)NC(=O)[C@H]([C@@H](C)O)NC(=O)[C@@H]2CCCN2C(=O)[C@H](CC(N)=O)NC(=O)[C@H](Cc2ccc(O)cc2)NC(=O)[C@@H](N)CSSC[C@@H](C(=O)O)NC1=O` (HELM PEPTIDE1{C.Y.N.P.T.T.Y.Q.A.C}$PEPTIDE1,PEPTIDE1,1:R3-10:R3$$$V2.0): the residual activity was found to be 73%.

`CC(C)C[C@@H]1NC(=O)[C@H](CCC(N)=O)NC(=O)[C@H](Cc2ccc(O)cc2)NC(=O)[C@H]([C@@H](C)O)NC(=O)[C@H]([C@@H](C)O)NC(=O)[C@@H]2CCCN2C(=O)[C@H](CC(N)=O)NC(=O)[C@H](Cc2ccc(O)cc2)NC(=O)[C@@H](N)CSSC[C@@H](C(=O)O)NC1=O` (HELM PEPTIDE1{C.Y.N.P.T.T.Y.Q.L.C}$PEPTIDE1,PEPTIDE1,1:R3-10:R3$$$V2.0): the residual activity was 73%.

For `CSCC[C@@H]1NC(=O)[C@H](CCC(N)=O)NC(=O)[C@H](Cc2ccc(O)cc2)NC(=O)[C@H]([C@@H](C)O)NC(=O)[C@H]([C@@H](C)O)NC(=O)[C@@H]2CCCN2C(=O)[C@H](CC(N)=O)NC(=O)[C@H](Cc2ccc(O)cc2)NC(=O)[C@@H](N)CSSC[C@@H](C(=O)O)NC(=O)[C@H](CC(=O)O)NC1=O` (HELM PEPTIDE1{C.Y.N.P.T.T.Y.Q.M.D.C}$PEPTIDE1,PEPTIDE1,1:R3-11:R3$$$V2.0), the residual activity worked out at 80%.

As to `C[C@@H](O)[C@@H]1NC(=O)[C@H]([C@@H](C)O)NC(=O)[C@@H]2CCCN2C(=O)[C@H](CC(N)=O)NC(=O)[C@H](Cc2ccc(O)cc2)NC(=O)[C@@H](N)CSSC[C@@H](C(=O)O)NC(=O)[C@H](CCC(N)=O)NC(=O)[C@H](CCC(N)=O)NC(=O)[C@H](Cc2ccc(O)cc2)NC1=O` (HELM PEPTIDE1{C.Y.N.P.T.T.Y.Q.Q.C}$PEPTIDE1,PEPTIDE1,1:R3-10:R3$$$V2.0), the residual activity turned out to be 73%.

`C[C@@H](O)[C@@H]1NC(=O)[C@H]([C@@H](C)O)NC(=O)[C@@H]2CCCN2C(=O)[C@H](CC(N)=O)NC(=O)[C@H](Cc2ccc(O)cc2)NC(=O)[C@@H](N)CSSC[C@@H](C(=O)O)NC(=O)[C@H](CC[S+](C)[O-])NC(=O)[C@H](CCC(N)=O)NC(=O)[C@H](Cc2ccc(O)cc2)NC1=O` (stereo partly drawn) (HELM PEPTIDE1{C.Y.N.P.T.T.Y.Q.[CS(=O)CC[C@H](N[*:1])C(=O)[*:2]].C}$PEPTIDE1,PEPTIDE1,1:R3-10:R3$$$V2.0): the residual activity was determined as 73%.

Regarding `CCCC[C@@H]1NC(=O)[C@H](CCC(N)=O)NC(=O)[C@H](Cc2ccc(O)cc2)NC(=O)[C@H]([C@@H](C)O)NC(=O)[C@H]([C@@H](C)O)NC(=O)[C@@H]2CCCN2C(=O)[C@H](CC(N)=O)NC(=O)[C@H](Cc2ccc(O)cc2)NC(=O)[C@@H](N)CSSC[C@@H](C(=O)O)NC1=O` (HELM PEPTIDE1{C.Y.N.P.T.T.Y.Q.[Nle].C}$PEPTIDE1,PEPTIDE1,1:R3-10:R3$$$V2.0), the residual activity was 73%.
